This note sets out measurements from US12723024B2 (priority 2021, dated 2026).

A short description of series [1]: Salt screening (slurry crystallization). Format: physicochemical. To be noted: for Salt screening result: slurry 50° C. then 25° C.; for Polymorph obtained in salt screening: XRPD. Set-up: key to Salt screening result: (+) shows that a crystalline salt was formed; (−) physical mixtures. On the procedure:
About 45 mg was added to a suitable solvent and different equivalents of acids were added under stirring at 50° C. for about 2 hours and then at 25° C. for at least 32 hours. Ethanol, acetone, and ACN were used as screening solvents. When no precipitation was obtained or only a few solids were obtained, the solutions were placed at 5° C. for crystallization.
(§1) Obtained suspensions were taken out and centrifuged. Solids obtained was analysed by XRPD. Salts with high or medium crystallinity were further characterized (see Table 5).

Series [2] is classed as physicochemical. To be noted: salt screening sample. An excerpt: (§2) According to the salt screening results (see Table 4), totally 19 potential salt hits were identified. All the potential salt hits were further investigated by Differential Scanning Calorimetry (DSC), Thermogravimetric analysis (TGA), H-NMR, Ion chromatography (IC), Karl Fischer titration (KF), and Polarized Light Microscopy (PLM) to confirm their identity and evaluate their physicochemical properties as shown in Table 5 below.

The nature of series [3]: Thermogravimetric analysis (TGA) weight loss. To be noted: salt screening sample, at the temperature given (80-200° C.). Format: physicochemical.
From the text: as §2

A short description of series [4]: Hygroscopicity (water uptake) of salt hits. Type of series: physicochemical. To be noted: salt screening sample; for Hygroscopicity: grade in words.
From the text: as §2

The nature of another series: Crystallinity by XRPD. Format: physicochemical. To be noted: salt screening sample. On the procedure: as §1, §2
Series [5] is described as follows: Solubility of diastereomeric salts in solvents. To be noted: 20 °C, read-out: Solubility @ 20-30° C. Type of series: physicochemical. An excerpt: Thus, in another highly preferred embodiment, DCM is used in step c).
Where [6] appears, read: organic solvent or mixture, in Acetone.
Where [7] appears, read: organic solvent or mixture, in DCM.
The mark [8] stands for this setting: organic solvent or mixture, in EtOAc.
[9] abbreviates: organic solvent or mixture, in EtOH.
[10] abbreviates: organic solvent or mixture, in Heptane.
The mark [11] stands for this setting: organic solvent or mixture, in IPA.
Setting [12] is: organic solvent or mixture, in IPAC.
The mark [13] stands for this setting: organic solvent or mixture, in MEK.
Where [14] appears, read: organic solvent or mixture, in MTBE.
[15] abbreviates: organic solvent or mixture, in MeOH.
Setting [16] is: organic solvent or mixture, in THF.
The mark [17] stands for this setting: organic solvent or mixture, in Toluene.

Counter-ions that a name gives are not always drawn. Like-named read-outs stand apart in the source and are kept apart here.

Take Citric acid: the Salt screening result in series [1] (ACN), in series [1] (Acetone) and in series [1] (EtOH) was “Clear solution” in each case.

Consider `COc1cc(C(F)(F)F)c(OC)cc1[C@@H]1CCCNC1.C[C@H](O)C(=O)O` [L-lactate salt Polymorph A], for which the “Water content (% w/w)” value in series [2] was 5.1% w/w. In series [3], the “Weight loss (%)” value is 4.9%. In addition, the Hygroscopicity entry in series [4] is listed as “None”. Also, the “Polymorph obtained in salt screening” value in series [1] (ACN) is “Polymorph A”. Further, the figures for the Salt screening result in series [1] (ACN), in series [1] (Acetone) and in series [1] (EtOH) were “+”, “Thin suspension” and “Clear solution”, respectively. Further, the Crystallinity result in the series “Crystallinity by XRPD” is “High”.

With `COc1cc(C(F)(F)F)c(OC)cc1[C@@H]1CCCNC1.COc1cc(C(F)(F)F)c(OC)cc1[C@@H]1CCCNC1.O=C(O)/C=C/C(=O)O` [Hemi-fumarate salt Polymorph A], the “Water content (% w/w)” value in series [2] is on record as 5.5% w/w. The “Weight loss (%)” value in series [3] is on record as 4.8%. Further, the Crystallinity result in the series “Crystallinity by XRPD” was “Medium”.

Regarding Glutamic acid, the “Polymorph obtained in salt screening” value in series [1] (ACN) is given as “Polymorph C”; in series [1] (EtOH), “Polymorph A”. Moreover, the Salt screening result in series [1] (ACN), in series [1] (Acetone) and in series [1] (EtOH) was “+” in each case.

In the case of `COc1cc(C(F)(F)F)c(OC)cc1[C@@H]1CCCNC1.C[C@@H](O)C(=O)O` [D-lactate salt Polymorph A], the Salt screening result is given as “Clear solution” in series [1] (ACN), “Thin suspension” in series [1] (Acetone) and “+” in series [1] (EtOH). Also, in series [1] (EtOH), the “Polymorph obtained in salt screening” value is listed as “Polymorph A”. The Crystallinity result in “Crystallinity by XRPD” was “High”.

`COc1cc(C(F)(F)F)c(OC)cc1[C@@H]1CCCNC1.COc1cc(C(F)(F)F)c(OC)cc1[C@@H]1CCCNC1.O=C(O)C(O)C(O)C(=O)O` [Hemi L-tartrate salt Polymorph A]: the “Weight loss (%)” value in series [3] came to 4.0%. Besides, the “Polymorph obtained in salt screening” value in series [1] (ACN), in series [1] (Acetone) and in series [1] (EtOH) was “Polymorph A” in each case. For the same molecule, the Salt screening result in series [1] (ACN), in series [1] (Acetone) and in series [1] (EtOH) was “+” in each case. For the same molecule, the Crystallinity result in “Crystallinity by XRPD” is listed as “Medium”.

For `COc1cc(C(F)(F)F)c(OC)cc1[C@@H]1CCCNC1.O=P(O)(O)O` [Phosphate salt Polymorph A], the “Weight loss (%)” value in series [3] amounted to 0.7%. Also, the figures for the Salt screening result in series [1] (ACN), in series [1] (Acetone) and in series [1] (EtOH) were “Hazy solution”, “+” and “Clear solution”, respectively. Besides, the “Polymorph obtained in salt screening” value in series [1] (Acetone) is listed as “Polymorph A”. Besides, the Crystallinity result in the series “Crystallinity by XRPD” is “Medium”.

By solubility is commonly meant the dissolved amount per volume that the medium holds. For the molecule `COc1cc(C(F)(F)F)c(OC)cc1[C@H]1CCCNC1` [(−)-Di-p-anisoyl-L-tartaric acid salt of (R)-3-(2,5-dimethoxy-4-(trifluoromethyl)phenyl)piperidine (1:1)], the solubility was less than 10000 µg/mL in series [5] (setting [6]); more than 400000 µg/mL in series [5] (setting [7]); less than 10000 µg/mL in series [5] (setting [8]); 25000 µg/mL in series [5] (setting [9]); less than 10000 µg/mL in series [5] (setting [10]); less than 10000 µg/mL in series [5] (setting [11]). Besides, the solubility in series [5] (setting [12]) was less than 10000 µg/mL; in series [5] (setting [13]) it was less than 10000 µg/mL; in series [5] (setting [14]), less than 10000 µg/mL; in series [5] (setting [15]), 40000 µg/mL; in series [5] (setting [16]), 45000 µg/mL; in series [5] (setting [17]) it was less than 10000 µg/mL. For the same molecule, in series [5] (in Water), the solubility is less than 5000 µg/mL.

Take `COc1cc(C(F)(F)F)c(OC)cc1[C@@H]1CCCNC1.N[C@@H](CCC(=O)O)C(=O)O` [L-glutamate salt Polymorph C]: the “Water content (% w/w)” value in series [2] is recorded as 8.7% w/w. The “Weight loss (%)” value in series [3] is 6.3%. For the same molecule, the Crystallinity entry in “Crystallinity by XRPD” is given as “High”.

In the case of `COc1cc(C(F)(F)F)c(OC)cc1[C@@H]1CCCNC1.COc1cc(C(F)(F)F)c(OC)cc1[C@@H]1CCCNC1.O=C(O)CCC(=O)O` [Hemi-succinate salt Polymorph B], in series [3], the “Weight loss (%)” value is on record as 4.8%. In series [4], the “Hygroscopicity (water uptake % w/w)” value is on record as “(~1.8%) % w/w” and the Hygroscopicity result is “Hygroscopic”. Further, in series [1] (ACN), the “Polymorph obtained in salt screening” value is given as “Polymorph A” and the Salt screening result is recorded as “+”. Also, in series [1] (Acetone), the “Polymorph obtained in salt screening” value is on record as “Polymorph A” and the Salt screening result was “+”. For the same molecule, in series [1] (EtOH), the “Polymorph obtained in salt screening” value is recorded as “Polymorph A” and the Salt screening result was “+”. In addition, the Crystallinity result in the series “Crystallinity by XRPD” is “Medium”.

Regarding `COc1cc(C(F)(F)F)c(OC)cc1[C@@H]1CCCNC1.N[C@@H](CCC(=O)O)C(=O)O` [L-glutamate salt Polymorph B], in series [2], the “Water content (% w/w)” value was 6.9% w/w. For the same molecule, the “Weight loss (%)” value in series [3] is listed as 6.6%. For the same molecule, the Crystallinity result in “Crystallinity by XRPD” is reported as “Medium”.

In the case of `COc1cc(C(F)(F)F)c(OC)cc1[C@@H]1CCCNC1` [drawing 39, (−)-Di-p-anisoyl-L-tartaric acid salt of (S)-3-(2,5-dimethoxy-4-(trifluoromethyl)phenyl)piperidine (1:1)], the solubility in series [5] (organic solvent or mixture, in 2-MeTHF) was 50000 µg/mL; in series [5] (organic solvent or mixture, in ACN), 12000 µg/mL; in series [5] (setting [6]) it was less than 10000 µg/mL; in series [5] (setting [7]) it was less than 10000 µg/mL; in series [5] (setting [8]), less than 10000 µg/mL; in series [5] (setting [9]), 12000 µg/mL. Besides, the solubility in series [5] (setting [10]) is less than 10000 µg/mL; in series [5] (setting [11]) it was less than 10000 µg/mL; in series [5] (setting [12]), less than 10000 µg/mL; in series [5] (setting [13]), less than 10000 µg/mL; in series [5] (setting [14]) it was less than 10000 µg/mL; in series [5] (setting [15]) it was 30000 µg/mL. The solubility in series [5] (setting [16]) is 50000 µg/mL; in series [5] (setting [17]) it was less than 10000 µg/mL; in series [5] (in Water), less than 5000 µg/mL.

Take `COc1cc(C(F)(F)F)c(OC)cc1[C@@H]1CCCNC1.COc1cc(C(F)(F)F)c(OC)cc1[C@@H]1CCCNC1.O=C(O)/C=C/C(=O)O` [Hemi-fumarate salt Polymorph B]: the “Water content (% w/w)” value in series [2] is 9.3% w/w. The “Weight loss (%)” value in series [3] is on record as 9.4%. Moreover, the Crystallinity entry in the series “Crystallinity by XRPD” is listed as “Medium”.

As to Gentisic acid, the Salt screening result in series [1] (ACN), in series [1] (Acetone) and in series [1] (EtOH) was “Clear solution” in each case.

In the case of `CC(=O)O.COc1cc(C(F)(F)F)c(OC)cc1[C@@H]1CCCNC1` [Acetate salt Polymorph A], in series [3], the “Weight loss (%)” value is recorded as 0.2%. Further, in series [4], the Hygroscopicity result is on record as “None”. Moreover, the “Polymorph obtained in salt screening” value in series [1] (ACN) and in series [1] (Acetone) was “Polymorph A” each time. For the same molecule, the Salt screening result is “+” in series [1] (ACN), “+” in series [1] (Acetone) and “Clear solution” in series [1] (EtOH). In addition, the Crystallinity result in “Crystallinity by XRPD” is “High”.

Consider `COc1cc(C(F)(F)F)c(OC)cc1[C@@H]1CCCNC1.O=S(=O)(O)O` [Sulfate salt Polymorph A], for which the “Weight loss (%)” value in series [3] was 8.2%. The “Polymorph obtained in salt screening” value in series [1] (ACN), in series [1] (Acetone) and in series [1] (EtOH) was “Polymorph A” in each case. Moreover, the Salt screening result in series [1] (ACN), in series [1] (Acetone) and in series [1] (EtOH) was “+” each time. Also, the Crystallinity entry in “Crystallinity by XRPD” was “High”.

As for `COc1cc(C(F)(F)F)c(OC)cc1[C@@H]1CCCNC1.N[C@@H](CCC(=O)O)C(=O)O` [L-glutamate salt Polymorph A], the “Water content (% w/w)” value in series [2] is reported as 8.6% w/w. For the same molecule, the “Weight loss (%)” value in series [3] was 4.8%. For the same molecule, the Crystallinity entry in “Crystallinity by XRPD” is “Low”.

`COc1cc(C(F)(F)F)c(OC)cc1[C@@H]1CCCNC1.O=C(O)/C=C/C(=O)O` [Mono-fumarate salt Polymorph C]: the “Weight loss (%)” value in series [3] is recorded as 0.6%. Further, the “Hygroscopicity (water uptake % w/w)” value in series [4] is on record as “(~0.2%) % w/w”. In addition, the “Polymorph obtained in salt screening” value in series [1] (ACN), in series [1] (Acetone) and in series [1] (EtOH) was “Polymorph C” each time. For the same molecule, the Salt screening result in series [1] (ACN), in series [1] (Acetone) and in series [1] (EtOH) was “+” each time. For the same molecule, the Crystallinity entry in the series “Crystallinity by XRPD” is on record as “Medium”.
